{
  "source": "patent US20080089860A1",
  "about": "“Therapeutic compositions and methods useful in treating cancer” (priority 2006, published 2008)",
  "key": {"[1]": {"test_system": "DU145 cells", "assay": "DU145 prostate cancer cell growth, MTT assay", "format": "cell-based, human", "conditions": "single agent, 50 μg/ml and 100 μg/ml", "procedure": "For cell proliferation assays, cells were grown in 10% FCS culture medium containing various amounts of IFNs and/or sodium stibogluconate in 96 well plates and cultured at 37° C. for 3 or 6 days as indicated. The numbers of viable cells in proliferation assays were determined by MTT assays as described in Phatak et al., J. Immunol. 167, 3391 (2001).\nNIH3T3 (Yi, et al., Blood 85, 87 (1995)), WM9 (Forsberg, et al., Proc. Nat. Acad. Sci. USA 90, 393 (1993)), DU145 (Mickey, et al., Cancer Res. 37, 4049 (1977)), LoVo (Drewinko, et al., Cancer Res. 36, 467 (1976)), HEY (Buick, et al., Cancer Res. 45, 3668 (1985)), U251 (Yoshida, et al., Cancer 50, 410 (1982)), A549 (Giard, et al., J. Natl. Cancer Inst. 51, 1417 (1973)) and SK-N-SH (Helson, et al., Cancer Res. 35, 2594 (1975)) cell lines have been described and were cultured in RPMI 1640 supplemented with 10% fetal calf serum (FCS). For measurement of sodium stibogluconate effects on cell growth in vitro, cells were cultured in the absence (−) or presence (+) of various amounts of sodium stibogluconate for 6 days with viable cells quantified by MTT assays (Mosmann, J. Immunol. Methods 65, 55 (1983)). Percentages of growth inhibition by sodium stibogluconate were calculated (.+−.x %)."}, "[2]": {"test_system": "Jak2/Stat5 and cellular protein tyrosine phosphorylation in Baf3 cells", "assay": "Cellular protein phosphorylation and Western blotting in Baf3 cells", "format": "cell-based, murine", "procedure": "For induction of cellular protein phosphorylation by sodium stibogluconate or pervanadate, Baf3 cells were incubated in 0.1% FCS-RPMI 1640 medium at 37° C. for 16 hours. The cells were then washed twice in RPMI 1640 medium and incubated with sodium stibogluconate or pervanandate (0.1 mM) for various times prior to termination by lysing cells in cold lysis buffer (50 mM Tris, pH 7.4; 150 mM NaCl; 0.2 mM Na3VO4; 20 mm NaF; 1% Nonidet P-40; 2 mM PMSF; 20 µg/ml of Aprotinin and 1 mM of sodium molybdic acid). To determine the effect of sodium stibogluconate or potassium antimonyl tartrate on IL-3-induced Jak/Stat phosphorylation, Baf3 cells were deprived of the growth factor for 16 hours in 0.1% FCS RPMI 1640 medium and then incubated with or without sodium stibogluconate or potassium antimonyl tartrate for 10 minutes. IL-3 was next added to the cell suspension and incubated for various times. The Cells were then harvested and lysed in cold lysis buffer at 4° C. for 45 minutes. Total cell lysates (TCL) were separated in SDS-PAGE gels, blotted onto nitrocellulose membrane (Schleicher & Schuell), probed with specific antibodies and detected using an enhanced chemiluminescence kit (ECL, Amersham, Arlington Heights, Ill.)."}, "[3]": {"target": "T1, intracellular Flag-PRL-3 (Homo sapiens, UniProt O75365)", "T1 construct": "expressed in transfected cells; host or cells: NIH3T3 (pBabepuro, puromycin-selected)", "T1 sequence (O75365 whole entry)": "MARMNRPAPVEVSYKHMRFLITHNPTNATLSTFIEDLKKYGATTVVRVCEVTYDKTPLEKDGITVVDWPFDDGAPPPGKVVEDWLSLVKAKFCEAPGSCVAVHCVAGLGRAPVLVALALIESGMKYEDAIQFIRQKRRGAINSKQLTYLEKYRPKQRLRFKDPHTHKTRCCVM", "assay": "Immunocomplex PTPase assay, Flag-PRL-3 NIH3T3 transfectants", "format": "cell-based", "conditions": "cells treated 5 min", "procedure": "Immunocomplex PTPase assays were performed to assess the effects of sodium stibogluconate on intracellular PTPases. Cells were untreated or treated with sodium stibogluconate for 5 minutes, washed with fresh medium and then lysed in cold lysis buffer (50 mM Tris, pH 7.4; 150 mM NaCl; 1% NP40; 2 mM PMSF; 20 μg/ml of Aprotinin). The lysates were incubated with an anti-Flag antibody in immunoprecipitation assays. The immunocomplexes were collected with protein G sepharose beads (Pharmacia) and washed in cold lysis buffer for 4 times. […] C. for 18 hrs. 100 µL of malachite green solution (UBI) was added to each reaction prior to measurement of OD660 to quantify the amounts of free phosphate cleaved by the PTPases from the peptide substrate (Pathak et al., J. Imumol. 167, 3391 (2001)). The remaining 10% contents of individual samples were analyzed by SDS-PAGE/Western blotting to quantify the relative amounts of the phosphatase proteins. […]\nThe effects of sodium stibogluconate on intracellular PTPases were assessed using NIH3T3 or WM9 transfectants. […]"}, "[4]": {"test_system": "DU145R cells", "assay": "DU145R cell growth, MTT assay", "format": "cell-based, human", "conditions": "day 6 culture", "procedure": "DU145 cells were cultured in the presence of sodium stibogluconate (100 µg/ml) in 48 well plates for 3 weeks. Cells from a well containing a single colony were transferred to flasks, cultured in sodium stibogluconate-free medium for 3 weeks and used as DU145R cells for further characterization. Growth of DU145R cells in the absence or presence of sodium stibogluconate in day 6 culture was determined by MTT assays. cDNAs of the coding region of PRLs were derived by RT-PCR from DU145 and DU145R cells and sequenced using primers described below."}, "[5]": {"test_system": "NB4 cells", "assay": "NB4 differentiation (NBT reduction, CD11b)", "format": "cell-based, human", "conditions": "6 days with drug (10 or 100 μg/ml), washed, 6 days without", "procedure": "Differentiation of AML cell lines was assessed by their ability to produce superoxide as measured by reduction of NBT to formazan and by analysis of expression of CD11b surface marker by flow cytometry. For NBT reduction, each cell suspension was mixed with an equal volume of solution containing 1 mg/ml of NBT (Sigma) and 2.5 µg/ml of TPA for 30 minutes at 37° C. After incubation, cells containing the purple formazan deposits and cells devoid of NBT-reducing activity (white cells) in each sample were determined by counting 200 cells under microscope. Data is expressed as a percentage based on the following ratio: purple cells/purple+white cells. For analysis of cell surface antigens, cells were exposed to phycoerythrin (PE)-conjugated murine anti-human CD11b (DAKO Corp., Carpinteria, Calif.). Analysis of fluorescence was performed on a FACScan flow cytometer (Beckton Dickinson, Mountain View, Calif.)."}},
  "note": "“Also recorded” adds a separate entry of the source.",
  "data": [
    {"smiles": "O.O.O.O.O.O.O.O.O.O=C([O-])[C@@H]1[O][Sb]2([O-])([O][Sb]34([OH])[O][C@H]([C@H](O)CO)[C@H]([O]3)[C@H](C(=O)[O-])[O]4)[O][C@H]([C@H](O)CO)[C@@H]1[O]2.[Na+].[Na+].[Na+]", "note": "[sodium stibogluconate]", "values": [
      {"measurement": "DU145 cells in day 6 culture", "setting": "[1]", "result": "killed all cells; also recorded: complete or near complete killing"},
      {"measurement": "induced cellular protein tyrosine phosphorylation", "setting": "[2]; Baf3 cells, in comparison with pervanadate (0.1 mM)", "result": "modest and transient"},
      {"measurement": "phosphotyrosine levels of Jak2 and Stat5 relative to cells without drug treatment", "setting": "[2]; IL-3-stimulated Baf3 cells, densitometry", "result": "about twice"},
      {"measurement": "Jak2/Stat5 tyrosine phosphorylation by drug alone", "setting": "[2]; no IL-3, 37 °C for 16 hours", "result": "failed to induce"},
      {"measurement": "PTPase activity of immunocomplexes from treated Flag-PRL-3 transfectants", "setting": "[3]", "result": "lack of PTPase activity"},
      {"measurement": "growth of DU145R clone in comparison to parental DU145", "setting": "[4]", "result": "growth resistance"},
      {"measurement": "reversal of NB4 differentiation after drug removal", "setting": "[5]", "result": "not reversed"}
    ]}
  ]
}
